Measurements from patent US20160303184A1, “VANCOMYCIN-SUGAR CONJUGATES AND USES THEREOF” (JAWAHARLAL NEHRU CENTRE FOR ADVANCED SCIENTIFIC RESEARCH …, priority 2013, published 2016).
≈ marks a conversion by molar mass, not a printed value. Entries after “also recorded” stand apart in the source; their conditions may differ.

Assays:
[1] = tested on: Vancomycin-resistant E. faecalis (VanA, ATCC 51575); assay: MIC, micro-dilution broth, VRE (VanB); format: cell-based; settings: E. faecalis ATCC 51575; read-out: MIC VRE (VanB)
[2] = tested on: Methicillin-resistant S. aureus (ATCC 33591); assay: MIC, micro-dilution broth, MRSA; format: cell-based; settings: ATCC 33591; read-out: MIC MRSA
Method: (§1) All test compounds were assayed in a micro-dilution broth format. Stock solutions were made by serially diluting the compounds using autoclaved millipore water or broth media. The antibacterial activity of the compounds was determined against methicillin-sensitive S. aureus (MSSA), methicillin-resistant S. aureus (MRSA), vancomycin-intermediate-resistant S. aureus (VISA), vancomycin-sensitive E. faecium (VSE) and vancomycin-resistant E. faecium (VRE). Bacteria, to be tested, were grown for about 10 h in the suitable media, MSSA, MRSA and VISA were grown in yeast-dextrose broth (about 1 g of beef extract, about 2 g of yeast extract, about 5 g of peptone and about 5 g of NaCl in about 1000 mL of sterile distilled water (pH-7)). For solid media, about 5% agar was used along with above mentioned composition. VSE and VRE were cultured in brain heart infusion broth (Himedia). The bacterial samples were freeze dried and stored at −80° C. About 5 μL of these stocks were added to about 3 mL of the nutrient broth and the culture was grown for about 6 h at about 37° C. prior to the experiments. This 6 h grown culture gives about 10^9 cfu/mL and this was determined by spread plating method. The 6 h grown culture was diluted to give effective cell concentration of about 10^5 cfu/mL which was then used for determining MIC. Compounds were serially diluted, in sterile water (2 fold dilution is employed) in a way that the working concentration was about 10 μM for MSSA, MRSA, and VSE while for VRE and VISA it was about 100 μM. About 50 μL of these serial dilutions were added to the wells of 96 well plate followed by the addition of about 150 μL of bacterial solution. The plates were then incubated at about 37° C., 150 rpm in the incubator and O.D at 600 nm was recorded at an interval of about 10 h and 24 h using TECAN (Infinite series, M200 pro) Plate Reader. Each concentration had triplicate values and the whole experiment was done at least twice and the MIC value was determined by taking the average of triplicate. O. D. values for each concentration and plotting it against concentration. The data was then subjected to sigmoidal fitting. From the curve the MIC value was determined, as the point in the curve where the O. D. was similar to that of control having no bacteria.

[3] = tested on: methicillin-resistant S. haemolyticus clinical isolate; assay: MIC, clinical isolate of methicillin-resistant S. haemolyticus; format: cell-based; settings: clinical isolate, methicillin-resistant; read-out: MIC S. haemolyticus
[4] = tested on: Methicillin-sensitive S. aureus (MTCC 737); assay: MIC, micro-dilution broth, MSSA; format: cell-based; settings: MTCC 737; read-out: MIC MSSA
Method: as §1

[5] = tested on: methicillin-resistant vancomycin-intermediate S. aureus (MR-VISA); assay: Time-kill assay; format: cell-based; settings: 2 μM and 4 μM
Method: The bactericidal activity was assessed by the kinetics or the rate at which it affects the killing action of the compound. Briefly methicillin-resistant vancomycin-intermediate S. aureus (MR-VISA) grown in Yeast-Dextrose broth. A starting inoculum of 1.6×10^8 CFU/ml was used as initial bacterial colony count. Vancomycin and compound 7 having final concentrations of 2 μM and 4 μM were inoculated with MR-VISA suspensions having starting inocula of 1.6×10^8 CFU/ml. Bacterial suspension containing specified concentrations of the compound along with negative control (which contains only 0.9% Saline) was incubated at 37° C. with shaking. Aliquots (20 μl) were removed from the cultures at different time intervals and were serially diluted 10-fold in 0.9% saline and plated onto sterile Yeast-Dextrose agar medium. The number of viable cells was determined by plating the 10-fold serial dilution of each sample onto Yeast-dextrose agar medium. Plates were then incubated for 24 h at 37° C., CFU was counted and the total bacterial log 10 CFU/ml was determined.

[6] = tested on: VISA; assay: Ex-vivo whole blood assay; format: cell-based, S. aureus; settings: 3 h incubation in 90% human whole blood
Method: Ex-vivo whole blood assay was performed to compare the abilities of these compounds to retain activity in complex media. To 30 μL of VISA in saline (0.9% NaCl; 10^6 CFU/mL) 10 μL of test compounds (vancomycin and compound 7) and 270 μL of fresh human whole blood were added and incubated, at 37° C. for about 3 h. After the incubation period, antibacterial activity was determined by finding the bacterial titer in the infected blood.

[7] = tested on: Vancomycin-sensitive E. faecium (ATCC 19634); assay: MIC, micro-dilution broth, VSE; format: cell-based; settings: ATCC 19634; read-out: MIC VSE
Method: as §1

[8] = tested on: Vancomycin intermediate resistant S. aureus; assay: MIC, micro-dilution broth, VISA; format: cell-based; settings: read-out: MIC VISA
Method: as §1

[9] = tested on: methicillin-resistant S. epidermidis clinical isolate; assay: MIC, clinical isolate of methicillin-resistant S. epidermidis; format: cell-based; settings: clinical isolate, methicillin-resistant
[10] = tested on: methicillin-resistant S. aureus clinical isolate; assay: MIC, clinical isolate of methicillin-resistant S. aureus; format: cell-based; settings: clinical isolate, methicillin-resistant
Method: as §1

[11] = tested on: VISA; assay: In-vivo time dependent whole blood assay; parameters: species or system S. aureus; settings: 12 mg/kg single i.v., CD-1 mice, VISA
Method: The derivative 7 and vancomycin were administered in a single intravenous injection (0.2 mL saline) to normal pathogen-free, female CD-1 mice. Doses of 12 mg kg^−1 were administered to three mice per data point. At the specified time-points (0, 3, 6, 12, 24 and 48 h) mice were euthanized (using ether), blood samples were collected from the ocular puncture. 60 μL of VISA in saline (0.9% NaCl; 10^6 CFU/mL) was added to 540 μL of whole blood which was drawn from the mice and incubated at 37° C. for 3 h. After the incubation period, antibacterial activity was determined by finding the bacterial titer in the infected blood.

[12] = tested on: Vancomycin-resistant E. faecium (VanA, ATCC 51559); assay: MIC, micro-dilution broth, VRE (VanA); format: cell-based; settings: E. faecium ATCC 51559; read-out: MIC VRE (VanA)
Method: as §1

## CN[C@H](CC(C)C)C(=O)N[C@H]1C(=O)N[C@@H](CC(N)=O)C(=O)N[C@H]2C(=O)N[C@H]3C(=O)N[C@H](C(=O)N[C@H](C(=O)O)c4cc(O)cc(O)c4-c4cc3ccc4O)[C@H](O)c3ccc(c(Cl)c3)Oc3cc2cc(c3O[C@@H]2O[C@H](CO)[C@@H](O)[C@H](O)[C@H]2O[C@H]2C[C@](C)(N)[C@H](O)[C@H](C)O2)Oc2ccc(cc2Cl)[C@H]1O [Vancomycin]
[1]
  MIC: 250 µM (≈ 362 µg/mL)
[2]
  MIC: 0.63 µM (≈ 0.913 µg/mL)
[3]
  MIC: 1.4 µM (≈ 2.03 µg/mL)
[4]
  MIC: 0.63 µM (≈ 0.913 µg/mL)
[5]
  killing kinetics: relatively slow killing or bacteriostatic effect
[6]
  bactericidal activity in whole blood: slow killing
[7]
  MIC: 0.6 µM (≈ 0.87 µg/mL)
[8]
  MIC: 13.0 µM (≈ 18.8 µg/mL)
[9]
  MIC S. epidermidis: 0.9 µM (≈ 1.3 µg/mL)
[10]
  MIC S. aureus: 0.7 µM (≈ 1.01 µg/mL)
[11]
  antibacterial activity of blood drawn at 3 h: did not show any activity; also recorded: nominal activity
  antibacterial activity of blood drawn at 6 h: did not show any activity
[12]
  MIC: >700 µM
